For one assay, the target named is T1, KAT6A (Homo sapiens, UniProt Q92794).
T1 construct: Recombinant human His-tagged Kat6a protein (amino acids 194-810); His; made in house; host or cells: Baculovirus-infected Sf9 insect cells
Description: Kat6a activity assay (TR-FRET, acetylation of biotinylated histone H4 peptide). To be noted: recombinant human His-tagged Kat6a (amino acids 194-810), 60 mins at 22° C., read-out: KAT6A-DPF/HAT domain IC50 [mol/l] (arithmetic mean). Format: biochemical. An excerpt:
Kat6a inhibitory activities of the compounds described in the present invention were quantified using a Fluorescence Resonance Energy Transfer (TR-FRET) assay which measures acetylation of a synthetic, biotinylated Histone-H4-derived peptide by the enzyme.
Recombinant human His-tagged Kat6a protein (amino acids 194-810), was purified in-house from Baculovirus-infected insect cells (Sf9). Histone H4 peptide (amino acids 1-24, […]-VLRD-K(Btn)-amide), which was used as substrate, was synthesized by Biosyntan GmbH, Berlin, Germany. Acetyl Coenzyme A was purchased from Sigma-Aldrich (#A-2056).
Kat6a was incubated for 60 mins at 22° C. in the presence of different concentrations of test substances (0 μM, and within the range 0.01-20 μM) in assay buffer [25 mM Tris/HCl pH 8, 1 mM EGTA, 2.5 mM Glutathion, 0.02% Chicken Albumin, 0.05% Pluronic F127, 25 mM NaCl, 220 nM H4 peptide and 600 nM Acetyl Coenzyme A].
The reaction was stopped by addition of Detection Solution (25 mM HEPES pH 7.5, 0.1% BSA, 22 nM SAXL665 (Cisbio #610SAXLE), 100 μM Anacardic Acid (Enzo #ALX-270-381), 1 nM Anti-Histone H4 (ACETYL K8) Antibody (ABCAM #AB15823) and 0.5 nM Anti-Rabbit IgG Eu (Perkin Elmer #AD0083).
The fluorescence emission at 620 nm and 665 nm after excitation at 330-350 nm was measured in a TR-FRET measuring instrument, for instance a Rubystar or a Pherastar (both from BMG Lab Technologies, Offenburg, Germany) or a Viewlux (Perkin-Elmer). The ratio of the emission at 665 nm and at […] was used as indicator of the amount of acetylated peptide.
The resulting data (ratio) were normalized, taking 0% inhibition as the mean value of control measurements where all reagents were included. In this case 50 nl DMSO were used instead of compounds. […] IC50 values were determined by regression analysis based on a 4 parameter equation (minimum, maximum, ICM, Hill; Y=Max+(Min−Max)/(1+(X/ICso) Hill) using the Screener Software (Genedata).

Assay [1] relates to ESR1 transcription in MVLN cells. Description: Repression of ESR1 transcription, MVLN luciferase reporter assay. Format: cell-based. To be noted: Homo sapiens, luciferase signal after 24 h, read-out: MVLN reporter assay, IC50[M] (arithmetic mean). An excerpt: KAT6A controls transcription of the ESR1 gene in breast cancer cells. Compound treatment that interferes with this mechanism was quantified using MVLN cells. These cells constitutively express the ER and are stably transfected with the luciferase (LUC) reporter gene and the corresponding hormone responsive element derived from the 5′-flanking region of the Xenopus Vitellogenin A2 gene (Pons et al., 1990, Demirpense et al., 1993, Joyeux et al., 1993). The repressive effect on ERα transcription activity of a test chemical is directly related to the luciferase measured in the lysate of treated MVLN cells.
Each sample was prepared as duplicate and rim wells were excluded. For luciferase signal determination 100 μl of a 1:1 mixture of Steadylite plus (Perkin Elmer; 6016759) and assay medium was added after 24 h for 15 minutes and measured in Victor X3 (Perkin Elmer). To exclude any effects caused by cell loss during the treatment, cell density was determined using Alamar Blue (Invitrogen; DAL1100). Prior to the luciferase measurement 10 μl Alamar Blue were added to each well and the plates were incubated for 2 h in the incubator. Then fluorescence was measured with Victor X3 (Perkin Elmer) at 530 nm/590 nm.
On the technique in general: A reporter such as luciferase makes a cellular process visible.

SMILES strings stand for the structures.

T1 sequence (Q92794 194-810): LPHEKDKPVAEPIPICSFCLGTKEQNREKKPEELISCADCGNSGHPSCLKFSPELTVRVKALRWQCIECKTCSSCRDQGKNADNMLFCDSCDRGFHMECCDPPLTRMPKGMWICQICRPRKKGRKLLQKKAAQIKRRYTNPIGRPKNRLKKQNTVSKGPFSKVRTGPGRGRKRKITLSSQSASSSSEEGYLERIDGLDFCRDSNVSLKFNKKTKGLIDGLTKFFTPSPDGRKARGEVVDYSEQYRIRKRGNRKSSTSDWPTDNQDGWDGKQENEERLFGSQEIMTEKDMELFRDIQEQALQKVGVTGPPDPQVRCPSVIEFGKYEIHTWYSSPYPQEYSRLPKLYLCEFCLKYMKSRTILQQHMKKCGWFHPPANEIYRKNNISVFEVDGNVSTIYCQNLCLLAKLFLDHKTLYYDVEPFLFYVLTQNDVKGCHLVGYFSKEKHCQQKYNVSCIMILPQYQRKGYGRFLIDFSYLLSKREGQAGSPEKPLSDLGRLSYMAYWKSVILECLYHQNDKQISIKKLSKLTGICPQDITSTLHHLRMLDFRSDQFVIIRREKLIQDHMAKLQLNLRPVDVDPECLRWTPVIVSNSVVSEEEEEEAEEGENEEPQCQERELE

Consider `CC(C)(C)c1ccc(OC2CC2)c(S(=O)(=O)NC(=O)c2cc3c(F)cc(C4CC4)cc3o2)c1` [Example 59, N-((5-(tert-butyl)-2-cyclopropoxyphenyl)sulfonyl)-6-cyclopropyl-4-fluorobenzofuran-2-carboxamide], for which the IC50 at KAT6A is 3.58 nM; in assay [1] it was 1.04e-07 M.
With `CCOc1ccc(C(F)(F)F)cc1S(=O)(=O)NC(=O)c1cc2c(F)cc(C3CC3)cc2o1` [Example 31, 6-Cyclopropyl-N-[2-ethoxy-5-(trifluoromethyl)phenyl]sulfonyl-4-fluoro-benzofuran-2-carboxamide], the IC50 on KAT6A was determined as 8.99 nM; in assay [1], 2.31e-07 M.
In the case of `O=C(NS(=O)(=O)c1ccccc1-c1ccccc1)c1cc2c(OC(F)F)cc(C3CC3)cc2o1` [Example 48, 6-Cyclopropyl-4-(difluoromethoxy)-N-(2-phenylphenyl)sulfonyl-benzofuran-2-carboxamide], the IC50 at KAT6A came to 26.7 nM; in assay [1], 5.54e-06 M.
As for `CCOc1ccc(Oc2ccccc2)cc1S(=O)(=O)NC(=O)c1cc2c(F)cc(C3CC3)cc2o1` [Example 33, 6-Cyclopropyl-N-(2-ethoxy-5-phenoxy-phenyl)sulfonyl-4-fluoro-benzofuran-2-carboxamide], the results for the IC50 (on KAT6A; in assay [1]) were 6.32 nM and 1.74e-06 M, respectively.
`CC(C)c1ccc(OCC2CC2(F)F)c(S(=O)(=O)NC(=O)c2cc3c(F)cc(C4CC4)cc3o2)c1` (stereo not shown) [Example 67, 6-Cyclopropyl-N-{(2-[(2,2-difluorocyclopropyl)methoxy)-5-isopropylphenyl]sulfonyl}-4-fluorobenzofuran-2-carboxamide]: the values for the IC50 (on KAT6A; in assay [1]) were 4.5 nM and 8.29e-08 M, respectively.
The like results for `CC(C)(C)c1ccc(OCC2CC2)c(S(=O)(=O)NC(=O)c2cc3c(F)cc(C4CC4)cc3o2)c1` [Example 61, N-((5-(tert-butyl)-2-(cyclopropylmethoxy)phenyl)sulfonyl)-6-cyclopropyl-4-fluorobenzofuran-2-carboxamide] were, in that order, 2.92 nM and 1.11e-07 M.
On the same counts, the results for `CC(C)c1ccc(OCC2CC2)c(S(=O)(=O)NC(=O)c2cc3c(F)cc(C4CC4)cc3o2)c1` [Example 36, 6-Cyclopropyl-N-[2-(cyclopropylmethoxy)-5-isopropyl-phenyl]sulfonyl-4-fluoro-benzofuran-2-carboxamide] are 3.01 nM and 1.41e-07 M.
Turning to `CCOc1ccccc1S(=O)(=O)NC(=O)c1cc2c(-n3ccnc3)cc(C3CC3)cc2o1` [Example 58, 6-Cyclopropyl-N-(2-ethoxyphenyl)sulfonyl-4-imidazol-1-yl-benzofuran-2-carboxamide], the IC50 is 39.5 nM at KAT6A and above 2e-05 M in assay [1].
The like results for `CC(C)(C)c1ccc(OC2CCC2)c(S(=O)(=O)NC(=O)c2cc3c(F)cc(C4CC4)cc3o2)c1` [Example 63, N-((5-(tert-Butyl)-2-cyclobutoxyphenyl)sulfonyl)-6-cyclopropyl-4-fluorobenzofuran-2-carboxamide] were, in that order, 2.46 nM and 2.24e-07 M.
The like results for `CC(C)c1ccc(OC2CCC2)c(S(=O)(=O)NC(=O)c2cc3c(F)cc(C4CC4)cc3o2)c1` [Example 65, N-[(2-Cyclobutoxy-5-isopropylphenyl)sulfonyl]-6-cyclopropyl-4-fluorobenzofuran-2-carboxamide] were, in that order, 2.09 nM and 1.49e-07 M.
Consider `CC(C)(C)c1ccc(OCC(F)(F)F)c(S(=O)(=O)NC(=O)c2cc3c(F)cc(C4CC4)cc3o2)c1` [Example 62, N-((5-(tert-butyl)-2-(2,2,2-trifluoroethoxy)phenyl)sulfonyl)-6-cyclopropyl-4-fluorobenzofuran-2-carboxamide], for which the values for the IC50 (on KAT6A; in assay [1]) were 4.16 nM and 2.4e-07 M, respectively.
Turning to `CCOc1cc(F)ccc1S(=O)(=O)NC(=O)c1cc2c(F)cc(C3CC3)cc2o1` [Example 30, 6-Cyclopropyl-N-(2-ethoxy-4-fluoro-phenyl)sulfonyl-4-fluoro-benzofuran-2-carboxamide], the values for the IC50 (on KAT6A; in assay [1]) were 37.3 nM and 2.84e-07 M, respectively.
On the same counts, the results for `CC(C)c1ccc(OCC(F)(F)F)c(S(=O)(=O)NC(=O)c2cc3c(F)cc(C4CC4)cc3o2)c1` [Example 41, 6-Cyclopropyl-4-fluoro-N-[5-isopropyl-2-(2,2,2-trifluoroethoxy)phenyl]sulfonyl-benzofuran-2-carboxamide] are 4.99 nM and 2.98e-07 M.
The like results for `CCOc1ccc(F)cc1S(=O)(=O)NC(=O)c1cc2c(F)cc(C3CC3)cc2o1` [Example 32, 6-Cyclopropyl-N-(2-ethoxy-5-fluoro-phenyl)sulfonyl-4-fluoro-benzofuran-2-carboxamide] were, in that order, 55.6 nM and 4.23e-07 M.
For the compound `O=C(NS(=O)(=O)c1ccccc1)c1cc2c(OC(F)F)cc(C3CC3)cc2o1` [Example 46, N-(benzenesulfonyl)-6-cyclopropyl-4-(difluoromethoxy)benzofuran-2-carboxamide], the IC50 at KAT6A was found to be 148 nM; in assay [1], 1.77e-05 M.
The like results for `CCOc1ccc(C(C)C)cc1S(=O)(=O)NC(=O)c1cc2c(F)cc(C3CC3)cc2o1` [Example 72, 6-Cyclopropyl-N-(2-ethoxy-5-isopropyl-phenyl)sulfonyl-4-fluoro-benzofuran-2-carboxamide] were, in that order, 4.79 nM and 1.23e-07 M.
On the same counts, the results for `CCOc1ccc(OC(F)(F)F)cc1S(=O)(=O)NC(=O)c1cc2c(F)cc(C3CC3)cc2o1` [Example 34, 6-Cyclopropyl-N-[2-ethoxy-5-(trifluoromethoxy)phenyl]sulfonyl-4-fluoro-benzofuran-2-carboxamide] are 20.8 nM and 1.42e-06 M.
For `CC(C)(C)c1ccc(OCc2ccccc2)c(S(=O)(=O)NC(=O)c2cc3c(F)cc(C4CC4)cc3o2)c1` [Example 60, N-[(2-(Benzyloxy)-5-(tert-butyl)phenyl)sulfonyl]-6-cyclopropyl-4-fluorobenzofuran-2-carboxamide], the IC50 is 2.67 nM on KAT6A and 8.24e-08 M in assay [1].
On the same counts, the results for `CCCOc1ccccc1S(=O)(=O)NC(=O)c1cc2c(F)cc(C3CC3)cc2o1` [Example 40, 6-Cyclopropyl-4-fluoro-N-(2-propoxyphenyl)sulfonyl-benzofuran-2-carboxamide] are 24.8 nM and 6.63e-07 M.
On the same counts, the results for `CCOc1c(F)cccc1S(=O)(=O)NC(=O)c1cc2c(F)cc(C3CC3)cc2o1` [Example 28, 6-Cyclopropyl-N-(2-ethoxy-3-fluoro-phenyl)sulfonyl-4-fluoro-benzofuran-2-carboxamide] are 106 nM and 1.7e-06 M.
`CC(C)Oc1ccc(C(C)(C)C)cc1S(=O)(=O)NC(=O)c1cc2c(F)cc(C3CC3)cc2o1` [Example 64, N-((5-(tert-Butyl)-2-isopropoxyphenyl)sulfonyl)-6-cyclopropyl-4-fluorobenzofuran-2-carboxamide]: the IC50 was determined as 4.33 nM on KAT6A and 1.76e-07 M in assay [1].
On the same counts, the results for `CCOc1ccccc1S(=O)(=O)NC(=O)c1cc2c(OC(F)F)cc(C3CC3)cc2o1` [Example 49, 6-Cyclopropyl-4-(difluoromethoxy)-N-(2-ethoxyphenyl)sulfonyl-benzofuran-2-carboxamide] are 28.6 nM and 6.97e-06 M.
Turning to `CC(C)c1ccc(OCc2ccccc2)c(S(=O)(=O)NC(=O)c2cc3c(F)cc(C4CC4)cc3o2)c1` [Example 35, N-(2-Benzyloxy-5-isopropyl-phenyl)sulfonyl-6-cyclopropyl-4-fluoro-benzofuran-2-carboxamide], the IC50 amounted to 5.99 nM on KAT6A and 2.19e-07 M in assay [1].

The values above are taken from US20240287048A1, “SUBSTITUTED ACYL SULFONAMIDES FOR TREATING CANCER” (The Broad Institute, Inc., priority 2020, published 2024).
